# Source: publication PMC4990313, “Biocatalytic Asymmetric Alkene Reduction: Crystal Structure and Characterization of a Double Bond Reductase from Nicotiana tabacum” (ACS Catalysis, 2013)
# Tests used:
# [1] = biological target: T1, NtDBR (double bond reductase) (Nicotiana tabacum, UniProt Q9SLN8); test: steady-state kinetics, NADPH oxidation; biotransformation with GC; format: biochemical
# T1 construct: gene DBR; full-length, C-terminal His6-tag
# [2] = biological target: T1, NtDBR (double bond reductase); test: steady-state kinetics, NADPH oxidation; substrate inhibition at pH […]; format: biochemical
# [3] = biological target: T1, NtDBR (double bond reductase); test: steady-state kinetics, NADPH oxidation; rate at pH […]; format: biochemical
# [4] = biological target: T1, NtDBR (double bond reductase); test: steady-state kinetics, NADPH oxidation; kcat/Km at pH […]; format: biochemical
# [5] = biological target: T1, NtDBR (double bond reductase); test: X-ray crystal structure (ternary complex, soak); some reduction in biotransformation; format: binding
# [6] = biological target: T1, NtDBR (double bond reductase); test: X-ray crystal structure (binary complex, NADPH soak); steady-state kinetics; format: binding
# [7] = biological target: T1, NtDBR (double bond reductase); test: X-ray crystal structure (ternary complex, soak); format: binding
# T1 sequence (Q9SLN8 whole entry): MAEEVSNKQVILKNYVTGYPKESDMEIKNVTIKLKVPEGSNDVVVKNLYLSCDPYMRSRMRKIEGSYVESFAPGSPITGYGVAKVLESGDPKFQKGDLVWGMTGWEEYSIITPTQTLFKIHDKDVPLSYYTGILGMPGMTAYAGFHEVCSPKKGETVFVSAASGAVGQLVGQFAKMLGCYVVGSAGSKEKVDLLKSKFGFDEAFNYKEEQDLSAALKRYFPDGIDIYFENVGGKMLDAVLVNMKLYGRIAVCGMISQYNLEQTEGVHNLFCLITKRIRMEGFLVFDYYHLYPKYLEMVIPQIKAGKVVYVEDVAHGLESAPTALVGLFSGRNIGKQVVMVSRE
smiles,measurement,setting,value
"O=[N+]([O-])C1=CCCCC1 [1a, 1-nitrocyclohexene]","steady-state kinetics, NADPH oxidation; biotransformation with GC",[1],NtDBR shows a high preference for 1-nitrocyclohexene (1a) over typical LTD alkenal/one substrates
"CCC=C(C)C=O [2a, 2-methylpentenal]",Ki,[2],2600 ± 600 µM
"CCCCCC/C=C/C=O [4a, trans-2-nonenal]","steady-state kinetics, NADPH oxidation; rate at pH 7.3",[3],0.87 ± 0.07 s^–1
"C=CC(=O)CCCCC [5a, 1-octen-3-one]","steady-state kinetics, NADPH oxidation; rate at pH 7.3",[3],0.52 ± 0.03 s^–1
"O=C/C=C/c1ccccc1 [6a, trans-cinnamaldehyde]","steady-state kinetics, NADPH oxidation; kcat/Km at pH 5.4",[4],2.8
"COc1cc(C=CC=O)ccc1O [9a, 4-hydroxy-3-methoxycinnamaldehyde]","X-ray crystal structure (ternary complex, soak); some reduction in biotransforma",[5],have modeled in HMCA because this was the compound soaked into the crystals
NC(=O)C1=CN([C@@H]2O[C@H](COP(=O)(O)OP(=O)(O)OC[C@H]3O[C@@H](n4cnc5c(N)ncnc54)[C@H](OP(=O)(O)O)[C@@H]3O)[C@@H](O)[C@H]2O)C=CC1 [NADPH],"X-ray crystal structure (binary complex, NADPH soak); steady-state kinetics",[6],Both the binary and ternary crystal structures showed clear |Fo| – |Fc| electron density for the NADP(H)
NC(=O)c1ccc[n+]([C@@H]2O[C@H](COP(=O)(O)OP(=O)(O)OC[C@H]3O[C@@H](n4cnc5c(N)ncnc54)[C@H](OP(=O)(O)O)[C@@H]3O)[C@@H](O)[C@H]2O)c1 [NADP^+],"X-ray crystal structure (ternary complex, soak)",[7],showed clear |Fo| – |Fc| electron density for the presence of NADP^+ and a second ligand in subunit A only
